From patent publication US9211350B2, “Compound with amyloid affinity” (priority 2011, dated 2015)

Tests used:
[1] = Measurement of partition coefficient based on the octanol extraction method; assay type: physicochemical; details: 1-octanol/water; average of 200 μL, 400 μL and 800 μL samples
Description: Partition coefficients based on the octanol extraction method (hereinafter referred to as log Poctanol) were measured, which are generally known as an indicator of permeability of compounds through the blood-brain barrier (hereinafter referred to as BBB).
Compound 1, Compound 2, Compound 3 and Compound 4 were adjusted to about 1 MBq/mL respectively using a water saturated 1-octanol solution to obtain sample solutions. Each sample solution in an amount of 30 μL was added to three microtubes. The three microtubes to which each sample solution was added were supplemented with both water saturated 1-octanol and 1-octanol saturated water so as to make the volume to be 200 μL, 400 μL or 800 μL, respectively (referred to as 200 μL sample, 400 μL sample and 800 μL sample, respectively). Each microtube was subjected to stirring, and then was shaken for 5 minutes (20 to 25±2° C., 20 rpm/min). Next, the mixture in each microtube was centrifuged (23° C., 3000 g×20 min.) with a centrifuge (type: T2-MC, manufactured by BECKMAN), and then 50 μL each of the octanol layer and the water layer was obtained, and subjected to measurement of radioactivity with an Autowell Gamma system (Type: ARC-7001, manufactured by Aloka). Using the obtained count, log Poctanol was calculated in accordance with the following equation (1). Meanwhile, the value of log Poctanol was an average value of the values which were respectively calculated for the 200 μL sample, the 400 μL sample and the 800 μL sample.

[2] = system: amyloid in brain of AD patients; test: Autoradiography of brain slice of AD patients; assay type: binding, human; details: 5 μm brain slice of AD patients, 10 kBq/mL, compared with immunostaining by anti-amyloid antibody
Description: The following experiment was carried out in order to examine whether the compound of the present invention can image amyloid in brain of AD patients.
• (1) A 5 μm thick brain slice of AD patients was prepared from a brain tissue of AD patients available from Analytical Biological Services Inc. (United States). • (2) The brain slice prepared for each test substance was immersed in PBS 3 times in total: 15 minutes, 5 minutes and 5 minutes in this order. Next, it was immersed in a 1% BSA-containing PBS for 30 minutes to conduct hydrophilization. As the test substance, a 1% BSA-containing PBS containing each of Compound 1, Compound 2, Compound 3, Compound 4, Compound 5 and [^123I]-IMPY (radioactive concentration: 10 kBq/mL) was prepared and used. The above hydrophilized brain slice was immersed at room temperature in each of the test substance solutions. Then, it was immersed in a 1% BSA-containing PBS for 5 minutes, next in a PBS for 5 minutes and further in a PBS for 5 minutes to wash the brain slices. The washed brain slice was sufficiently dried, and then exposed to an imaging plate for 16 hours, and then autoradiogram image analysis was carried out by use of a Bio-imaging Analyzer (type: BAS-2500; manufactured by FUJIFILM Corporation) (FIG. 7, FIG. 8, FIG. 9, FIG. 10, FIG. 11, FIG. 12). • (3) Separately, immunostaining at a site of amyloid deposition with an anti-amyloid antibody was carried out using adjacent slices which were subjected to hydrophilization in accordance with the same procedures as the above. Anti-Human Amyloidβ(N) (82E1) Mouse IgG MoAb (Immuno-Biological Laboratories Co., Ltd.) was used as the anti-amyloid antibody, and Anti-Mouse IgG (H+L) Goat IgG Fab′-HRP (Immuno-Biological Laboratories Co., Ltd.) was used as a secondary antibody. The site of amyloid deposition was detected by applying the DAB+(3,3′-diaminobenzidinetetrahydrochloride) substrate kit (Dako) to HRP attached to the secondary antibody (FIG. 13). Results

[3] = Measurement of transferability into brain and clearance (radioactive accumulation in brain); details: rats; for Radioactive accumulation per unit weight (% ID/g) in brain, After 2 min. / Radioactive accumulation per unit weight (% ID/g) in brain, After 60 min.: intravenous injection (tail vein); for Radioactive accumulation per unit weight (% ID/g) in brain, After 2 min.: 2 minutes after the injection; for Radioactive accumulation per unit weight (% ID/g) in brain, After 60 min.: 60 minutes after the injection; for Transferability to brain and clearance from brain (in words): intravenous injection, 2 and 60 minutes
Description: Using Compound 1, Compound 2, Compound 3, Compound 4 and Compound 5, radioactive accumulation in brain of male Wistar rats (8-week old) was measured.
A solution in which Compound 1, Compound 2, Compound 4 and Compound 5 were respectively dissolved in a physiological saline solution containing 50 mmol/L of L-cysteine hydrochloride was prepared, to obtain a sample solution (radioactive concentration: all 37 MBq/mL). A solution in which Compound 3 was dissolved in a physiological saline solution containing 10% ethanol and 50 mmol/L of L-cysteine hydrochloride was prepared, to obtain a sample solution (radioactive concentration: 37 MBq/mL). The sample solution was injected under non-anesthesia into the tail vein of male Wistar rats (8-week old) (dosage: 0.2 mL, dosed radioactivity: 7.4 MBq equivalent). The rats were sacrificed by decapitating under non-anesthesia to sample bloods and brains 2 and 60 minutes after the injection. Brains were subjected to measurement of mass of brains and further subjected to measurement of radioactivity (hereinafter referred to as A in this Example) with a single channel analyzer (detector type: SP-20 manufactured by OHYO KOKEN KOGYO Co., Ltd.). Further, the radioactivity level of the rest of the whole body including blood was measured in the same manner as above (hereinafter referred to as B in this Example). Using these measurement results, the amount of radioactive accumulation per unit weight of brain (% ID/g) at the respective time points after the dissection were calculated in accordance with the following formula (2).
The same procedure as the above was carried out to calculate the amount of radioactive accumulation per unit weight of brain (% ID/g) at the respective time points after the dissection.
Meanwhile, in this Example, three animals were used for the experiment at the respective time points.

amyloid aggregates = test: In vitro binding test with gray matter and white matter homogenate of brain of AD patients; set-up: species or system human; details: for Radioactive amount attached to brain tissue of AD patients (%), Gray matter: brain gray matter homogenate of AD patients (amyloid deposition); for Radioactive amount attached to brain tissue of AD patients (%), Gray matter / Radioactive amount attached to brain tissue of AD patients (%), White matter: 100 μg protein/mL, 3 hours, 22° C., relative to added radioactivity; for Radioactive amount attached to brain tissue of AD patients (%), White matter: brain white matter homogenate of AD patients (no amyloid); for Binding property to amyloid deposited in the brain (in words): gray matter versus white matter homogenate of AD patients
Description: Binding properties to amyloid aggregates of Compound 1, Compound 3, Compound 4, Compound 5 and [^123I]-IMPY were evaluated by the following in vitro binding test.
The assay was conducted using a gray matter homogenate of brain of AD patients and a white matter homogenate of brain of AD patients, which were prepared from a brain tissue (Frontal lobe) of AD patients commercially available from Analytical Biological Services Inc. (United States).
To each well of a 96-well microplate, 150 μL of a 0.1% BSA-containing 5 mmol/L phosphate buffer saline solution and 50 μL of a sample solution prepared above were added. Two wells were afforded to each sample solution. Of the two wells in which each sample solution was added, one received 50 μL of the brain grey matter homogenate of AD patients, and the other received 50 μL of the brain white matter homogenate of AD patients (final concentration: 100 μg protein/mL), so that the reaction was initiated. After the reaction solution was shaken for 3 hours (22° C., 400 rpm), a glass fiber filter (Multiscreen HTS FB, manufactured by Millipore) was used to filter the reaction solution. The filtrated filter was washed with a 0.1% BSA-containing 5 mmol/L phosphate buffer saline solution (200 μL, 3 times), and then radioactivity remained in the filter was measured with an Autowell Gammma system (type: ARC-7001, manufactured by Aloka). The ratio (%) of the radioactivity attached to the brain grey matter homogenate of AD patients or the brain white matter homogenate of AD patients relative to the added-radioactivity was calculated from the resulting count. Meanwhile, the above was repeated 3 times.

Question: Which logPoctanol value [1] does the source give for “[^123I]-6-iodo-2-[2-(2H-1,2,3-triazole-2-yl)pyridine-5-yl]imidazo[1,2-a]pyridine [Compound 2]” here?
Answer: 2.05

Question: What about the “Binding to the site of amyloid deposition on autoradiogram (in words)” value (shortened to “Binding to the site”) [2] of the same molecule?
Answer: binding of the compounds to the site of amyloid deposition confirmed by immunostaining was also be confirmed

Question: And the “Radioactive accumulation per unit weight (% ID/g) in brain, After 2 min.” value [3]?
Answer: 1.160 % ID/g

Question: And the “Radioactive accumulation per unit weight (% ID/g) in brain, After 60 min.” value [3]?
Answer: 0.027 % ID/g

Question: What about the “Transferability to brain and clearance from brain (in words)” value [3] of the same molecule?
Answer: excellent transferability to brain and rapid clearance from brain

Question: Which results are given for “[^123I]-6-iodo-2-[2-(pyrazole-1-yl)pyridine-5-yl]imidazo[1,2-a]pyridine [Compound 5]”?
Answer: Radioactive amount attached to brain tissue of AD patients (%), Gray matter (amyloid aggregates): 2.41%; Radioactive amount attached to brain tissue of AD patients (%), White matter (amyloid aggregates): 0.77%; Binding property to amyloid deposited in the brain (in words) (amyloid aggregates): have a binding property to amyloid deposited in the brain; Binding to the site of amyloid deposition on autoradiogram (in words) [2]: binding of the compounds to the site of amyloid deposition confirmed by immunostaining was also be confirmed; Radioactive accumulation per unit weight (% ID/g) in brain, After 2 min. [3]: 1.500 % ID/g; Radioactive accumulation per unit weight (% ID/g) in brain, After 60 min. [3]: 0.079 % ID/g; Transferability to brain and clearance from brain (in words) [3]: excellent transferability to brain and rapid clearance from brain

Question: Which results are given for “[^123I]-6-iodo-2-[2-(1H-1,2,4-triazole-1-yl)pyridine-5-yl]imidazo[1,2-a]pyridine [Compound 4]”?
Answer: logPoctanol value [1]: 2.23; Radioactive amount attached to brain tissue of AD patients (%), Gray matter (amyloid aggregates): 1.13%; Radioactive amount attached to brain tissue of AD patients (%), White matter (amyloid aggregates): 0.17%; Binding property to amyloid deposited in the brain (in words) (amyloid aggregates): have a binding property to amyloid deposited in the brain; Binding to the site of amyloid deposition on autoradiogram (in words) [2]: binding of the compounds to the site of amyloid deposition confirmed by immunostaining was also be confirmed; Radioactive accumulation per unit weight (% ID/g) in brain, After 2 min. [3]: 1.287 % ID/g; Radioactive accumulation per unit weight (% ID/g) in brain, After 60 min. [3]: 0.056 % ID/g; Transferability to brain and clearance from brain (in words) [3]: excellent transferability to brain and rapid clearance from brain

Question: Which “Radioactive amount attached to brain tissue of AD patients (%), Gray matter” value (amyloid aggregates) does the source give for `CN(C)c1ccc(-c2cn3cc(I)ccc3n2)cc1` [[^123I]-IMPY, 6-iodo-2-[4′-(N,N-dimethylamino)phenyl]imidazo[1,2-a]pyridine, reference compound] here?
Answer: 1.97%

Question: And the “Radioactive amount attached to brain tissue of AD patients (%), White matter” value (amyloid aggregates)?
Answer: 0.77%

Question: What about the “Binding to the site” value [2] of the same molecule?
Answer: binding of the compounds to the site of amyloid deposition confirmed by immunostaining was also be confirmed

Question: What about the “Radioactive accumulation per unit weight (% ID/g) in brain, After 2 min.” value [3] of the same molecule?
Answer: 1.644 % ID/g

Question: And the “Radioactive accumulation per unit weight (% ID/g) in brain, After 60 min.” value [3]?
Answer: 0.085 % ID/g

Question: With `[123I]c1ccc2nc(-c3ccc(-n4ccnn4)nc3)cn2c1` [Compound 1, [^123I]-6-iodo-2-[2-(1H-1,2,3-triazole-1-yl)pyridine-5-yl]imidazo[1,2-a]pyridine] as the molecule, how does the logPoctanol value [1] read?
Answer: 2.10

Question: And the “Radioactive amount attached to brain tissue of AD patients (%), Gray matter” value (amyloid aggregates)?
Answer: 2.59%

Question: What about the “Radioactive amount attached to brain tissue of AD patients (%), White matter” value (amyloid aggregates) of the same molecule?
Answer: 0.48%

Question: And the “Binding property to amyloid deposited in the brain (in words)” value (amyloid aggregates)?
Answer: have a binding property to amyloid deposited in the brain

Question: What about the “Binding to the site” value [2] of the same molecule?
Answer: binding of the compounds to the site of amyloid deposition confirmed by immunostaining was also be confirmed

Question: What about the “Radioactive accumulation per unit weight (% ID/g) in brain, After 2 min.” value [3] of the same molecule?
Answer: 1.226 % ID/g

Question: What about the “Radioactive accumulation per unit weight (% ID/g) in brain, After 60 min.” value [3] of the same molecule?
Answer: 0.028 % ID/g

Question: And the “Transferability to brain and clearance from brain (in words)” value [3]?
Answer: excellent transferability to brain and rapid clearance from brain

Question: What does the source list for “[^123I]-6-iodo-2-[2-(1H-imidazole-1-yl)pyridine-5-yl]imidazo[1,2-a]pyridine [Compound 3]”?
Answer: logPoctanol value [1]: 1.91; Radioactive amount attached to brain tissue of AD patients (%), Gray matter (amyloid aggregates): 2.00%; Radioactive amount attached to brain tissue of AD patients (%), White matter (amyloid aggregates): 0.83%; Binding property to amyloid deposited in the brain (in words) (amyloid aggregates): have a binding property to amyloid deposited in the brain; Binding to the site of amyloid deposition on autoradiogram (in words) [2]: binding of the compounds to the site of amyloid deposition confirmed by immunostaining was also be confirmed; Radioactive accumulation per unit weight (% ID/g) in brain, After 2 min. [3]: 1.186 % ID/g; Radioactive accumulation per unit weight (% ID/g) in brain, After 60 min. [3]: 0.246 % ID/g; Transferability to brain and clearance from brain (in words) [3]: excellent transferability to brain and rapid clearance from brain
